From US20230339968A1, “KRAS Gl2C INHIBITORS” (Eli Lilly and Company, priority 2019, published 2023)
Where two headings read alike, the source gives them in different places.

How the values were obtained:
LXFA-983L (lung) = assay: CellTiterGlo Cell Proliferation Assay (2D), LXFA-983L; assay type: cell-based; conditions: 96 hours
Protocol: (§1) The purpose of this assay is to evaluate the growth of KRas G12C mutant tumor lines following treatment with a test compound. A panel of tumor cell lines harboring KRas G12C or other KRas mutations are collected (Table 25). All cell lines are from ATCC or other sources indicated.
(§2) Typically cells are cultured in RPMI1640 or Dulbecco's modified Eagle's medium (DMEM, GIBCO) supplemented with 10% FBS (GIBCO, Invitrogen). […] The cells are treated with compound for 96 hours, and then are analyzed for viability using the CellTiterGlo® Luminescent Cell Viability Assay® (Promega #G7572 for 2D) according to manufacturer's instructions and an EnVision™ plate reader. Nonlinear regression and sigmoidal dose-response curves are used to calculate the half maximal inhibitory concentration (IC50) with GraphPad Prism 4® software.

A549 (lung) = assay: CellTiterGlo Cell Proliferation Assay (2D), A549 (KRas G12S); assay type: cell-based; conditions: Homo sapiens
Protocol: as §1, §2

H1373 (lung) = assay: CellTiterGlo Cell Proliferation Assay (2D), H1373; assay type: cell-based; conditions: Homo sapiens, NCI-H1373, 96 hours
Protocol: as §1, §2

H23 (lung) = assay: CellTiterGlo Cell Proliferation Assay (2D), H23; assay type: cell-based; conditions: 96 hours
Protocol: as §1, §2

SW1573 (lung) = assay: CellTiterGlo Cell Proliferation Assay (2D), SW1573; assay type: cell-based; conditions: Homo sapiens, 96 hours
Protocol: as §1, §2

H358 (lung) = assay: CellTiterGlo Cell Proliferation Assay (2D), H358; assay type: cell-based; conditions: Homo sapiens, NCI-H358, 96 hours
Protocol: as §1, §2

MiaPaca-2 (pancr) = assay: CellTiterGlo Cell Proliferation Assay (2D), MiaPaca-2; assay type: cell-based; conditions: Homo sapiens, MIA PaCa-2, 96 hours
Protocol: as §1, §2

HCC44 (lung) = assay: CellTiterGlo Cell Proliferation Assay (2D), HCC44; assay type: cell-based; conditions: Homo sapiens, 96 hours
Protocol: as §1, §2

SW756 (cervix) = assay: CellTiterGlo Cell Proliferation Assay (2D), SW756; assay type: cell-based; conditions: Homo sapiens, 96 hours
Protocol: as §1, §2

LU99 (lung) = assay: CellTiterGlo Cell Proliferation Assay (2D), LU99; assay type: cell-based; conditions: Homo sapiens, Lu-99, 96 hours
Protocol: as §1, §2

H1792 (lung) = assay: CellTiterGlo Cell Proliferation Assay (2D), H1792; assay type: cell-based; conditions: Homo sapiens, NCI-H1792, 96 hours
Protocol: as §1, §2

H2122 (lung) = assay: CellTiterGlo Cell Proliferation Assay (2D), H2122; assay type: cell-based; conditions: Homo sapiens, NCI-H2122, 96 hours
Protocol: as §1, §2

KYSE-410 (esoph) = assay: CellTiterGlo Cell Proliferation Assay (2D), KYSE-410; assay type: cell-based; conditions: Homo sapiens, 96 hours
Protocol: as §1, §2

active KRas = active KRas (Homo sapiens, UniProt P01116, G12C); assay: In vivo target inhibition, active KRas ELISA of tumor lysates, lung cancer H358 xenograft model; parameters: from tissue; host or cells: H358 xenograft tumours grown subcutaneously in nude female mice; conditions: NCI-H358, mouse
Protocol: The purpose of these assays is to evaluate in vivo target inhibition of an orally administered test compound. Human lung cancer H358 cells, or pancreatic cancer MiaPaca-2 cells, are implanted into nude mice xenograft tumor models. H358 or MiaPaca-2 cells (10×106 in a 1:1 Matrigel® mix, 0.2 mL total volume) are implanted by subcutaneous injection in hind leg of nude female mice (Harlan Laboratories). […] Treatment is initiated with oral administration (gavage) of a test compound or vehicle (20% Captisol®, 25 mM phosphate, pH 2.0 in 0.2 mL) when the tumor size reaches approximately 300 mg.
For in vivo target inhibition and PD analysis, tumors are ground by mortar and pestle on dry ice and tumor fragments are added to 800 μL of lysis buffer containing 1% Triton™ X-100, 25 mM Tris pH7.5, 150 mM sodium chloride, 1 mM EDTA, and 1 mM EGTA with Halt protease and phosphatase inhibitor cocktail (Thermo Scientific, cat. no. 1861281) in lysing matrix D tubes (MP Biomedical®, cat. no. 6913-500) with one additional large bead (MP Biomedical® ¼″ ceramic sphere bead cat. no. 6540-412) per tube. Tumor fragments are homogenized in a Thermo Bio101® fast prep (FP120) at setting 4 for […] while cold for a total of 2 times. Lysates are spun at 14,000 rpm for 10 minutes at 4° C. to clarify. Protein estimation is done on the lysate supernatant using a BioRad Dc® protein assay and lysates are diluted in complete lysis/binding buffer from the Ras GTPase Chemi ELISA Kit® (Active Motif, cat. no. 52097). The active KRas ELISA is performed as follows: glutathione-coated ELISA wells are incubated with diluted RAF1-GST in complete lysis/binding buffer for 1 hour at 4° C. with gentle agitation. Wells are washed 3 times with wash buffer and 100 μg of lysates are added to each well and incubated at ambient temperature for 1 hour with mild agitation. The wells are washed an additional 3 times, then primary antibody, diluted in antibody binding buffer, is added to each well. The plates are incubated for 1 hour. The wells are washed 3 more times before adding HRP-conjugated secondary antibody, diluted in antibody binding buffer, to each well. The plates are incubated at ambient temperature for 1 hour. ELISA wells are washed 4 times, chemiluminescent reagent is added and then luminescence is read. For pERK Meso Scale Discovery ELISA, 25 μg of protein containing 0.1% SDS is used; Meso Scale Discovery Whole Cell Lysate Kit for pERK is provided by Meso Scale Discovery.
The purpose of this assay is to evaluate the dose dependent in vivo target inhibition and pharmacodynamic effects in a lung cancer model. The test compound is dosed in lung cancer H358 mouse xenograft model at a dose range from 12.5 to 100 mg/kg. The tumor samples are collected 8 hours post a single dose. The tumor lysates are prepared and the inhibition of pERKand active KRas is measured as described above.
The purpose of this assay is to evaluate the time dependent in vivo target inhibition and pharmacodynamic effects in a lung cancer model. […] After a single dose, the tumor samples are harvested at 2, 4, 8, 12 and 24 hour post doing. The tumor lysates are prepared and the inhibition of pERK and active KRas is measured as described above.

Sequence of active KRas (P01116 1-188 isoform P01116-2 G12C): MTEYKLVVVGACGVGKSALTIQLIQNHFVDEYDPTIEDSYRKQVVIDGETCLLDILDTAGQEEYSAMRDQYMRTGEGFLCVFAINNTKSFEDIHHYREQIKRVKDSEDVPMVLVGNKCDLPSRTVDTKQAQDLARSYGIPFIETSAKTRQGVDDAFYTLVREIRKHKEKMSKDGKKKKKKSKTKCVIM

**Q.** For `C=CC(=O)N1CCN2C(=O)c3cc(F)c(-c4ccc(F)c5sc(N)c(C#N)c45)c(Cl)c3OCC[C@H]2C1` [Example 35, 4-[(13aS)-10-Chloro-8-fluoro-6-oxo-2-prop-2-enoyl-1,3,4,12,13,13a-hexahydropyrazino[2,1-d][1,5]benzoxazocin-9-yl]-2-amino-7-fluoro-benzothiophene-3-carbonitrile], which IC50 (LXFA-983L (lung)) is on record?
**A.** > 10 µM

**Q.** And the inhibition at 10 µM (LXFA-983L (lung); 10 μM)?
**A.** 83.1%

**Q.** And the inhibition at 10 µM (A549 (lung); A549, 96 h, read-out: % inh. @ 10 μM)?
**A.** 31.6%

**Q.** What about the IC50 (A549 (lung); A549 (lung, KRas G12S), 2D, 96 hours) of the same molecule?
**A.** > 10 µM

**Q.** And the IC50 (H1373 (lung))?
**A.** 3.54 µM

**Q.** What about the inhibition at 10 µM (H1373 (lung); 10 μM) of the same molecule?
**A.** 86.3%

**Q.** What about the IC50 (H23 (lung)) of the same molecule?
**A.** 24 nM

**Q.** And the inhibition at 10 µM (H23 (lung); 10 μM)?
**A.** 98%

**Q.** What about the IC50 (SW1573 (lung)) of the same molecule?
**A.** > 10 µM

**Q.** What about the inhibition at 10 µM (SW1573 (lung); 10 μM) of the same molecule?
**A.** 44.7%

**Q.** And the IC50 (H358 (lung))?
**A.** 2 nM

**Q.** And the inhibition at 10 µM (H358 (lung); 10 μM)?
**A.** 96.4%

**Q.** What about the IC50 (MiaPaca-2 (pancr)) of the same molecule?
**A.** 11 nM

**Q.** And the inhibition at 10 µM (MiaPaca-2 (pancr); 10 μM)?
**A.** 85.8%

**Q.** And the IC50 (HCC44 (lung))?
**A.** 2230 nM

**Q.** What about the inhibition at 10 µM (HCC44 (lung); 10 μM) of the same molecule?
**A.** 64.3%

**Q.** And the IC50 (SW756 (cervix))?
**A.** 1550 nM

**Q.** And the inhibition at 10 µM (SW756 (cervix); 10 μM)?
**A.** 56.7%

**Q.** What about the IC50 (LU99 (lung)) of the same molecule?
**A.** 173 nM

**Q.** And the inhibition at 10 µM (LU99 (lung); 10 μM)?
**A.** 96.6%

**Q.** And the IC50 (H1792 (lung))?
**A.** 1410 nM

**Q.** What about the inhibition at 10 µM (H1792 (lung); 10 μM) of the same molecule?
**A.** 81.7%

**Q.** What about the IC50 (H2122 (lung)) of the same molecule?
**A.** 900 nM

**Q.** And the inhibition at 10 µM (H2122 (lung); 10 μM)?
**A.** 79.7%

**Q.** What about the IC50 (KYSE-410 (esoph)) of the same molecule?
**A.** 7.97 µM

**Q.** And the inhibition at 10 µM (KYSE-410 (esoph); 10 μM)?
**A.** 68.3%

**Q.** And the inhibition at 12.5 mg/kg (active KRas; po, read-out: % Inhibition Active RAS, H358 xenograft mice, single oral dose 12.5 mg/kg, 8 hours)?
**A.** 81%

**Q.** What about the inhibition at 25 mg/kg (active KRas; po, read-out: % Inhibition Active RAS, H358 xenograft mice, single oral dose 25 mg/kg, 8 hours) of the same molecule?
**A.** 73.4%

**Q.** And the inhibition at 50 mg/kg (active KRas; po, read-out: % Inhibition Active RAS, H358 xenograft mice, single oral dose 50 mg/kg, 8 hours)?
**A.** 94%

**Q.** And the inhibition at 100 mg/kg (active KRas; po, read-out: % Inhibition Active RAS, H358 xenograft mice, single oral dose 100 mg/kg, 8 hours)?
**A.** 91.9%

**Q.** What about the inhibition at 30 mg/kg (active KRas; read-out: % Inhibition of Active Ras, H358 model, single dose 30 mg/kg, 2 h) of the same molecule?
**A.** 7.6%

**Q.** And the inhibition at 30 mg/kg (active KRas; read-out: % Inhibition of Active Ras, H358 model, single dose 30 mg/kg, 4 h)?
**A.** 65.7%

**Q.** And the inhibition at 30 mg/kg (active KRas; read-out: % Inhibition of Active Ras, H358 model, single dose 30 mg/kg, 8 h)?
**A.** 80.2%

**Q.** What about the inhibition at 30 mg/kg (active KRas; read-out: % Inhibition of Active Ras, H358 model, single dose 30 mg/kg, 12 h) of the same molecule?
**A.** 39.3%

**Q.** And the inhibition at 30 mg/kg (active KRas; read-out: % Inhibition of Active Ras, H358 model, single dose 30 mg/kg, 24 h)?
**A.** 54.9%
